The results in this text go back to patent US10364226B2, “Pyridazinone compounds and uses thereof” (priority 2013, dated 2019).

Structures are written as SMILES. Where two headings read alike, the source gives them in different places.

Test [1] deals with Influenza strain A549 A/WSN/33 (H1N1). Description: Influenza Antiviral Assay. Format: cell-based, Influenza A virus. The note with it: neuraminidase fluorescence readout, read-out: % Inhibition.
For test [2], the target named is EN PA (Influenza A virus, UniProt P15659). As to the kind of experiment: EN PA FRET Inhibition Assay. In kind it is biochemical. The following applies: read-out: Potency.

Turning to `CNC(=O)c1nn(CC2(c3cccc(Br)c3)CCCC2)cc(O)c1=O` [Compound 666], the EC50 in test [1] (Influenza A virus, A549, 20 h) is < 20000 nM. The IC50 in test [2] was < 100 nM.
On the same counts, the results for `O=C(NCc1ccc2[nH]ncc2c1)c1nn(CC2(c3cccc(C(F)(F)F)c3)CCCC2)cc(O)c1=O` [Compound 669] are > 100000 nM and < 100 nM.
On the same counts, the results for `CNC(=O)c1nn(CC2c3ccccc3CCc3ccccc32)cc(O)c1=O` [Compound 670] are > 100000 nM and 100 to 1000 nM.
On the same counts, the results for `CNC(=O)c1nn(CC2(n3cc(-c4ccccc4)c4cccnc43)CCCC2)cc(O)c1=O` [Compound 671] are < 20000 nM and 100 to 1000 nM.
Turning to `CNC(=O)c1nn(CC2(c3cccc(-c4ccccc4)c3)CCCC2)cc(O)c1=O` [Compound 674], the EC50 in test [1] (Influenza A virus, A549, 20 h) is < 20000 nM. For the same compound, the IC50 in test [2] was < 100 nM.
As for `O=C(NC1CC1)c1nn(CC2(c3ccccc3)CCCC2)cc(O)c1=O` [Compound 676], in test [1] (Influenza A virus, A549, 20 h), the EC50 is < 20000 nM. Moreover, the IC50 in test [2] is < 100 nM.
On the same counts, the results for `O=C(NCC1CC1)c1nn(CC2(c3ccccc3)CCCC2)cc(O)c1=O` [Compound 677] are < 20000 nM and < 100 nM.
On the same counts, the results for `CNC(=O)c1nn(CC2(n3cc(C)c4cccnc43)CCCC2)cc(OC(=O)C(C)C)c1=O` [Compound 678] are < 20000 nM and < 100 nM.
On the same counts, the results for `CNC(=O)c1nn(CC2(n3cc(C)c4cccnc43)CCCC2)cc(OC(=O)C(C)(C)C)c1=O` [Compound 679] are < 20000 nM and < 100 nM.
Turning to `CNC(=O)c1nn(CC2(n3cc(Br)c4cccnc43)CCCC2)cc(O)c1=O` [Compound 680], the EC50 in test [1] (Influenza A virus, A549, 20 h) is < 20000 nM. The IC50 in test [2] was < 100 nM.
On the same counts, the results for `CNC(=O)c1nn(CC2(n3cc(C(F)(F)F)c4cccnc43)CCCC2)cc(O)c1=O` [Compound 681] are < 20000 nM and < 100 nM.
On the same counts, the results for `O=C(NC1CC1)c1nn(CC2(n3cc(C(F)(F)F)c4cccnc43)CCCC2)cc(O)c1=O` [Compound 682] are < 20000 nM and < 100 nM.
Consider `O=C(O)c1nn(CC2(c3cccc(Br)c3)CCCC2)cc(O)c1=O` [Compound 683], for which the EC50 in test [1] (Influenza A virus, A549, 20 h) was > 100000 nM. Further, the IC50 in test [2] is < 100 nM.
On to `CNC(=O)c1nn(CC2(c3ccc(C(F)(F)F)cc3)CCCC2)cc(O)c1=O` [Compound 685], for which the EC50 in test [1] (Influenza A virus, A549, 20 h) is < 20000 nM. Also, the IC50 in test [2] is < 100 nM.
As for `CNC(=O)c1nn(CC2(c3ccc(-c4ccccc4)cc3)CCCC2)cc(O)c1=O` [Compound 686], the EC50 in test [1] (Influenza A virus, A549, 20 h) was < 20000 nM. For the same compound, the IC50 in test [2] was in the range of 100 to 1000 nM.
`CNC(=O)c1nn(CC2(c3ccc(C(C)C)cc3)CCCC2)cc(O)c1=O` [Compound 687]: in test [1] (Influenza A virus, A549, 20 h), the EC50 was < 20000 nM. Also, the IC50 in test [2] was < 100 nM.
Consider `O=C(NCc1ccncc1)c1nn(CC2(c3ccccc3)CCCC2)cc(O)c1=O` [Compound 692], for which the EC50 in test [1] (Influenza A virus, A549, 20 h) was < 20000 nM. For the same compound, in test [2], the IC50 is < 100 nM.
On the same counts, the results for `O=C(NCc1cncnc1)c1nn(CC2(c3ccccc3)CCCC2)cc(O)c1=O` [Compound 693] are < 20000 nM and < 100 nM.
On the same counts, the results for `CNC(=O)c1nn(CC2(n3cc(C(C)C)c4cccnc43)CCCC2)cc(O)c1=O` [Compound 694] are < 20000 nM and 100 to 1000 nM.
On the same counts, the results for `CNC(=O)c1nn(CC2(n3cc(C(F)(F)F)c4cccnc43)CCCC2)cc(OC(=O)C(C)(C)C)c1=O` [Compound 695] are < 20000 nM and < 100 nM.
On to `CNC(=O)c1nn(CC2(c3cccc(Cl)c3)CCCC2)cc(O)c1=O` [Compound 700], for which the EC50 in test [1] (Influenza A virus, A549, 20 h) was < 20000 nM. For the same compound, in test [2], the IC50 is < 100 nM.
Regarding `CNC(=O)c1nn(CC2(c3cccc(OC)c3)CCCC2)cc(O)c1=O` [Compound 703], the EC50 in test [1] (Influenza A virus, A549, 20 h) is < 20000 nM. For the same compound, the IC50 in test [2] was < 100 nM.
As for `CNC(=O)c1nn(CC(C)(C)n2cc(C(F)(F)F)c3cccnc32)cc(O)c1=O` [Compound 704], the EC50 in test [1] (Influenza A virus, A549, 20 h) was < 20000 nM. Further, in test [2], the IC50 was < 100 nM.
As to `NC(=O)c1nn(CC2(c3ccccc3)CCCC2)cc(O)c1=O` [Compound 708], the EC50 in test [1] (Influenza A virus, A549, 20 h) was < 20000 nM. In addition, the IC50 in test [2] was < 100 nM.
On the same counts, the results for `O=C(NCc1ccc(F)c(Cl)c1)c1nn(CC2(c3ccccc3)CCCC2)cc(O)c1=O` [Compound 709] are < 20000 nM and < 100 nM.
As to `CNC(=O)c1nn(CC2(n3cc(C4CC4)c4cccnc43)CCCC2)cc(O)c1=O` [Compound 718], in test [1] (Influenza A virus, A549, 20 h), the EC50 is < 20000 nM. Besides, the IC50 in test [2] is < 100 nM.
On to `O=C(Nc1ccc(Cl)cc1)c1nn(CC2(c3ccccc3)CCCC2)cc(O)c1=O` [Compound 720], for which the EC50 in test [1] (Influenza A virus, A549, 20 h) was > 100000 nM. Also, the IC50 in test [2] was < 100 nM.
On the same counts, the results for `NC(=O)c1nn(CC2(c3cccc(-c4ccccc4)c3)CCCC2)cc(O)c1=O` [Compound 722] are > 100000 nM and < 100 nM.
On the same counts, the results for `CC(C)c1cccc(C2(Cn3cc(O)c(=O)c(C(=O)O)n3)CCCC2)c1` [Compound 723] are 20000 to 100000 nM and < 100 nM.
Turning to `CC(C)c1cccc(C2(Cn3cc(O)c(=O)c(C(N)=O)n3)CCCC2)c1` [Compound 730], in test [1] (Influenza A virus, A549, 20 h), the EC50 was < 20000 nM. Also, the IC50 in test [2] was < 100 nM.
With `CCc1cccc(C2(Cn3cc(O)c(=O)c(C(=O)NC)n3)CCCC2)c1` [Compound 733], the EC50 in test [1] (Influenza A virus, A549, 20 h) is < 20000 nM. The IC50 in test [2] was < 100 nM.
Take `C=Cc1cccc(C2(Cn3cc(O)c(=O)c(C(=O)NC)n3)CCCC2)c1` [Compound 738]: in test [1] (Influenza A virus, A549, 20 h), the EC50 is < 20000 nM. Moreover, the IC50 in test [2] is < 100 nM.
On the same counts, the results for `CNC(=O)c1nn(CC2(n3cc(C)c4ccccc43)CCCC2)cc(O)c1=O` [Compound 740] are < 20000 nM and < 100 nM.
Regarding `CCNC(=O)c1nn(CC2(n3cc(C)c4cccnc43)CCCC2)cc(O)c1=O` [Compound 741], the EC50 in test [1] (Influenza A virus, A549, 20 h) is < 20000 nM. In test [2], the IC50 is < 100 nM.
In the case of `CNC(=O)c1nn(CC2(n3cc(-c4ccccc4)c4cccnc43)CCCC2)cc(O)c1=O` [Compound 742], the EC50 in test [1] was < 20000 nM. Also, in test [2], the IC50 is < 100 nM.
Regarding `CNC(=O)c1nn(CC2(n3cc(Cl)c4cccnc43)CCCC2)cc(O)c1=O` [Compound 743], in test [1] (Influenza A virus, A549, 20 h), the EC50 is < 20000 nM. Besides, the IC50 in test [2] was < 100 nM.
On the same counts, the results for `CCc1ccc(C2(Cn3cc(O)c(=O)c(C(=O)NC)n3)CCCC2)cc1` [Compound 747] are < 20000 nM and < 100 nM.
On the same counts, the results for `CNC(=O)c1nn(CC2(c3cccc4ccccc34)CCCC2)cc(O)c1=O` [Compound 749] are < 20000 nM and < 100 nM.
On the same counts, the results for `O=C(NCc1ccc(F)c(Cl)c1)c1nn(CC2(c3cccc(Cl)c3)CCCC2)cc(O)c1=O` [Compound 750] are < 20000 nM and < 100 nM.
`CNC(=O)c1nn(CC2(c3ccc(Cl)c(Cl)c3)CCCC2)cc(O)c1=O` [Compound 752]: the EC50 in test [1] (Influenza A virus, A549, 20 h) was < 20000 nM. Further, the IC50 in test [2] was < 100 nM.
On the same counts, the results for `CCNC(=O)c1nn(CC2(n3cc(Cl)c4cccnc43)CCCC2)cc(O)c1=O` [Compound 753] are < 20000 nM and < 100 nM.
In the case of `CNC(=O)c1nn(CC2(n3ccc4cc(C5CC5)cnc43)CCCC2)cc(O)c1=O` [Compound 754], the EC50 in test [1] (Influenza A virus, A549, 20 h) is < 20000 nM. Further, the IC50 in test [2] was < 100 nM.
As to `CCCc1cnc2c(ccn2C2(Cn3cc(O)c(=O)c(C(=O)NC)n3)CCCC2)c1` [Compound 755], in test [1] (Influenza A virus, A549, 20 h), the EC50 was < 20000 nM. Further, the IC50 in test [2] was < 100 nM.
On the same counts, the results for `CCCNC(=O)c1nn(CC2(n3cc(C)c4cccnc43)CCCC2)cc(O)c1=O` [Compound 756] are < 20000 nM and < 100 nM.
For `Cc1cn(C2(Cn3cc(O)c(=O)c(C(=O)NCc4ccc(F)c(Cl)c4)n3)CCCC2)c2ncccc12` [Compound 757], the EC50 in test [1] (Influenza A virus, A549, 20 h) is < 20000 nM. For the same compound, the IC50 in test [2] is < 100 nM.
On the same counts, the results for `NC(=O)c1nn(CC2(n3cc(Cl)c4cccnc43)CCCC2)cc(O)c1=O` [Compound 758] are < 20000 nM and < 100 nM.
On the same counts, the results for `Cc1cn(C2(Cn3cc(O)c(=O)c(C(=O)NCCCO)n3)CCCC2)c2ncccc12` [Compound 759] are < 20000 nM and < 100 nM.
Regarding `O=C(NCC1CC1)c1nn(CC2(n3cc(Cl)c4cccnc43)CCCC2)cc(O)c1=O` [Compound 760], in test [1] (Influenza A virus, A549, 20 h), the EC50 is < 20000 nM. Also, the IC50 in test [2] was < 100 nM.
Turning to `Cc1cn(C2(Cn3cc(O)c(=O)c(C(=O)NCCO)n3)CCCC2)c2ncccc12` [Compound 761], the EC50 in test [1] (Influenza A virus, A549, 20 h) is < 20000 nM. In addition, the IC50 in test [2] is < 100 nM.
On the same counts, the results for `C=Cc1ccc(C2(Cn3cc(O)c(=O)c(C(=O)NC)n3)CCCC2)cc1` [Compound 762] are < 20000 nM and < 100 nM.
For the compound `CNC(=O)c1nn(CC2(n3cc(C)c4cccnc43)CCCC2)cc(OC(=O)OCC(C)C)c1=O` [Compound 764], in test [1] (Influenza A virus, A549, 20 h), the EC50 is < 20000 nM. Further, the IC50 in test [2] is < 100 nM.
`CNC(=O)c1nn(CC2(n3cc(C)c4cccnc43)CCCC2)cc(OC(=O)N(C)C)c1=O` [Compound 765]: the EC50 in test [1] (Influenza A virus, A549, 20 h) was in the range of 20000 to 100000 nM. Further, the IC50 in test [2] was ≥ 1000 nM.
On the same counts, the results for `CC(C)(C)NC(=O)c1nn(CC2(n3cc(Cl)c4cccnc43)CCCC2)cc(O)c1=O` [Compound 766] are < 20000 nM and < 100 nM.
Consider `CNC(=O)c1nn(CC2(c3cc(Cl)cc(C(F)(F)F)c3)CCCC2)cc(O)c1=O` [Compound 768], for which, in test [1] (Influenza A virus, A549, 20 h), the EC50 is < 20000 nM. The IC50 in test [2] is < 100 nM.
On the same counts, the results for `C[C@@H](NC(=O)c1nn(CC2(n3cc(Cl)c4cccnc43)CCCC2)cc(O)c1=O)C(F)(F)F` [Compound 771] are < 20000 nM and 100 to 1000 nM.
On the same counts, the results for `C[C@H](NC(=O)c1nn(CC2(n3cc(Cl)c4cccnc43)CCCC2)cc(O)c1=O)C(F)(F)F` [Compound 772] are < 20000 nM and 100 to 1000 nM.
For the compound `Cc1cn(C2(Cn3cc(O)c(=O)c(C(=O)N4CCC4)n3)CCCC2)c2ncccc12` [Compound 773], in test [1] (Influenza A virus, A549, 20 h), the EC50 is < 20000 nM. Besides, the IC50 in test [2] is < 100 nM.
